# Reference: US6906175B2, “Production of adenine nucleotide translocator (ANT), novel ANT ligands and screening assays therefor” (priority 1998, dated 2005)
# What was measured:
# [1] = target: T1, GST-huANT3 recombinantly produced in E. coli (membranes) (Homo sapiens, UniProt P12236); experiment: Saturation binding of [32P]ATP to E. coli membranes, huANT3-producing cells; conditions: atractyloside 10μM added to the assay
# T1 construct: Gly-Ser-Pro-Gly-Ile-Leu-Met, where “Met” indicates the amino acid encoded by the translation initiation codon of huANT3; made in house; host or cells: E. coli (crude membrane preparation)
# T1 sequence (P12236 1-298): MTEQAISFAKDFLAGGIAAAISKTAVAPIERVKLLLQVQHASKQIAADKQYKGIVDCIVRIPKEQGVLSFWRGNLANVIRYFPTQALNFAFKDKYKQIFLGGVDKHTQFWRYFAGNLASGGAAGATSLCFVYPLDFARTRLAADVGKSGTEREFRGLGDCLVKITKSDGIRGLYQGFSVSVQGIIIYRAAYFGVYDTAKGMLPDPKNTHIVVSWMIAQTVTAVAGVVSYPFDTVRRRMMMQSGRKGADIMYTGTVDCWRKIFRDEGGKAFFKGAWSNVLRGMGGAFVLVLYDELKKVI
# Experimental: Following arabinose induction, transformed or sham transformed (vector only) E coli were collected by centrifugation at 2000 g for 10 min. The bacterial pellets were resuspended in MSB, to which lysozyme (100 μg/ml) was added. After 20 min at room temperature, the lysates were subjected to one freeze-thaw cycle followed by sonication as described above. The resultant membrane preparation was used for binding assays.
# […] The membranes with bound ATP were sedimented by centrifugation at 5000 g for 5 min, and washed once with binding buffer. Membrane pellets were then mixed with 5 ml scintillation cocktail and counted.
# Sf9/huANT3 mitochondria [2] = target: T2, Sf9/huANT3 mitochondria (Homo sapiens, UniProt P12236); experiment: Homologous competition of [32P]ATP binding to Sf9/huANT3 mitochondria; conditions: FIG. 8
# T2 construct: expressed in transfected cells; host or cells: Spodoptera frugiperda Sf9 cells infected with recombinant baculovirus; isolated mitochondria
# T2 sequence (P12236 1-298): T1 sequence (P12236 1-298)
# Experimental: To estimate maximal binding and the extent of overexpression of the huANT3, 25 μg of membrane protein was incubated with varying amounts of [^32P]ATP (1-500 μM) in binding buffer (120 mM KCl, 10 mM Tris, 1 mM EDTA, pH 7.4) for 2 hr at room temperature. The membranes with bound ATP were sedimented by centrifugation at 5000 g for 5 min, and washed once with binding buffer. Membrane pellets were then mixed with 5 ml scintillation cocktail and counted.
# (§1) Sf9 cells expressing huANT3 were grown in spinner flasks. The cells were harvested by centrifugation at 2,000 g for 5 min. The cell pellet was resuspended in MSB and subjected to 3 freeze-thaw cycles. Cell membranes and debris were removed by centrifugation at 600 g for 5 min; mitochondria were collected by centrifuging the supernatant at 20,000 g for 15 min. The mitochondrial pellets were suspended in MSB, and used for binding assays as described above. Homologous competition of [^32P]ATP binding was performed using 25 μg mitochondrial protein per assay.
# Sf9/huANT3 mitochondria [3] = target: T2, Sf9/huANT3 mitochondria; experiment: [125I]atractyloside competition binding to Sf9/huANT3 mitochondria; conditions: 0.5 nM [125I]atractyloside
# Experimental: as §1
# These findings are consistent with the presence of functional huANT3 in the mitochondrial preparations.
# Atractyloside analogs (Example 6; Table 1; see also Examples 7-9) were used in pseudo-homologous competition binding assays using Sf9/huANT3 mitochondria. Mitochondria (see Example 12, 25 μg/tube) were incubated with 0.5 nM [^125I]atractyloside and varying concentrations of non-radiolabeled atractyloside or fluorescent atractyloside derivatives as described above (FIGS. 7-9).
# His-tagged huANT3 = target: T3, His-tagged huANT3 (Homo sapiens, UniProt P12236); experiment: 125I-compound 24 competition binding to recombinant His-tagged huANT3 immobilized on Ni beads; set-up: made in house; host or cells: baculovirus-infected Trichoplusia ni cells; mitochondria solubilized and captured on Ni-agarose beads (Qiagen); conditions: His-tagged huANT3 on Ni-agarose beads, 1 hour at 4° C.; FIG. 19
# T3 sequence (P12236 1-298): T1 sequence (P12236 1-298)
# Experimental: Competitive binding assays were also performed using recombinant His-tagged huANT3 (see Example 3) immobilized on Ni beads (FIG. 19) instead of mitochondria. To prepare the bead-immobilized huANT3, mitochondria from T. ni cells infected with a baculovirus expressing huANT3 (see Example 3) were solubilized with 0.5% O-glucopyranoside in the presence of 0.5 nM ^125I-compound 24 Ni-agarose beads (Qiagen, Hilden, Germany), and various concentrations of ATR or BKA as unlabeled competitors. After 1 hour at 4° C., the beads were washed and radioactivity that remained associated with the beads was counted.
compound,measurement,setting,value
"C=C1[C@@H]2CCC3[C@@](CC[C@@H]4[C@H](C(=O)O)C[C@@H](O[C@@H]5O[C@H](CO)[C@@H](OS(=O)(=O)[O-])[C@H](OS(=O)(=O)[O-])[C@H]5OC(=O)CC(C)C)C[C@@]34C)(C2)[C@@H]1O.[K+].[K+] (stereo partly shown) [ATR, atractyloside]",effect on ATP binding,[1],abolished
same,displacement of ATP binding,Sf9/huANT3 mitochondria [2],displaced by low concentrations of atractyloside
same,cpm [125I]Atractyloside bound in the presence of ATR derivative,Sf9/huANT3 mitochondria [3]; [ATR Derivative] 1.0 nM,224 cpm
same,cpm [125I]Atractyloside bound in the presence of ATR derivative,Sf9/huANT3 mitochondria [3]; [ATR Derivative] 5.0 nM,146 cpm
same,cpm [125I]Atractyloside bound in the presence of ATR derivative,Sf9/huANT3 mitochondria [3]; [ATR Derivative] 10 nM,42 cpm
same,cpm [125I]Atractyloside bound in the presence of ATR derivative,Sf9/huANT3 mitochondria [3]; [ATR Derivative] 50 nM,26 cpm
same,cpm [125I]Atractyloside bound in the presence of ATR derivative,"Sf9/huANT3 mitochondria [3]; [ATR Derivative] 1,000 nM",36 cpm
same,cpm [125I]Atractyloside bound in the presence of ATR derivative,"Sf9/huANT3 mitochondria [3]; [ATR Derivative] 5,000 nM",45 cpm
same,cpm [125I]Atractyloside bound in the presence of ATR derivative,"Sf9/huANT3 mitochondria [3]; [ATR Derivative] 10,000 nM",0 cpm
same,competitive inhibition of 125I-compound 24 binding (in words),His-tagged huANT3,effectively compete with compound 24
